The source of these data is patent publication US20090176714A1, “METHOD OF REDUCING THE EFFECTS OF ABeta AND COMPOSITIONS THEREFORE” (priority 2004, published 2009).

In test [1] the test system is tau. The test is described as follows: Tau phosphorylation in human cortical slices (AT8, phospho-tau(Thr231), electron microscopy). It is filed as cell-based. Here is the method:
β-amyloid1-42 and reverse Aβ (Aβ42-1) were obtained from BACHEM (Torrance, Calif.). These peptides were dissolved in 0.1% NH3OH at 222 μM. For treatments, Aβ or reverse Aβ was aggregated at 50 μM in Neurobasal media with B-27 supplement and 0.5 mM glutamine at 37° C. for 24 hours. […] Human TTR (Calbiochem) was added to slices together with the Aβ treatment at final concentrations of 0.03, 0.3, and 3 μM TTR. sAPPα was obtained from Sigma (St. Louis, Mo.). Unless otherwise stated, all sAPPα treatments were performed at 1 nM 48 hours prior to the addition of Aβ. The 10 amino acid fragment of the carboxyl-terminal region of sAPPα (592-601 of APP695; SEVKMDAEFR was added according to the same protocol for sAPPα. Because a variable amount of tissue was obtained from each patient, not all treatments were performed on all patients.
Slices were fixed in 4% PFA for 20 minutes, incubated in 30% sucrose in phosphate buffered saline overnight, and frozen in OCT embedding medium. Frozen sections with a width of 10 μm were taken through each slice. Phosphorylated tau was detected with the monoclonal AT8 antibody (1:200; Research Diagnostics, Flanders, N.J.) and anti-phospho-tau(Thr231) (1:500; Calbiochem, San Diego, Calif.). As a control, pre-immune rabbit or mouse IgG (Vector Laboratories, Burlingame, Calif.) was used in place of the primary antibody. A biotinylated anti-rabbit IgG or anti-mouse IgG was used as the secondary antibody. The Vectastain Elite ABC kit (Vector) and tyramide conjugated to either Alexa Fluor 488 or 568 (Molecular Probes, Eugene, Oreg.) were used to visualize the antibody staining. Anti-NeuN (1:250; Chemicon International, Temecula, Calif.) together with an anti-mouse IgG secondary antibody conjugated to Alexa Fluor 647 was used to detect the neuronal marker NeuN. Sections were imaged using either the Bio-Rad Laser Scanning Confocal system or epifluorescence (Zeiss, Thornwood, N.Y.).

The subject of test [2] is tau. The test is described as follows: Tau phosphorylation (AT8, phospho-tau(Thr231) immunohistochemistry, immunoblot, electron microscopy) in hippocampal slices. The class given is cell-based, mouse. Here is the method:
Mice were killed with CO2 and immediately perfused through the heart with phosphate buffered saline (PBS). The right hemispheres were fixed in 4% paraformaldehyde (PFA) overnight, sunk in 30% sucrose, and frozen in OCT embedding medium. Hippocampal slices were fixed in 4% PFA for 20 minutes, incubated in 30% sucrose overnight, and frozen in OCT embedding medium. Frozen sections with a width of 10 μm were taken through the hippocampus. Post-mortem human tissue was formalin fixed, cut at 10 μm, and boiled for 10 minutes in a 10 mM Tris buffer, […] for antigen retrieval. IGF-2 and TTR were detected with a 1:200 dilution of the polyclonal antibody against IGF-2 (F-20) or TTR (C-20; Santa Cruz Biotechnology, Santa Cruz, Calif.). Phospho-BAD (Ser112; Cell Signaling, Beverly, Mass.), and BAD (Stressgen, Victoria, British Columbia) were detected with a 1:250 dilution of the respective polyclonal antibody. Phosphorylated tau was detected with the monoclonal AT8 antibody (1:200; Research Diagnostics, Flanders, N.J.) and anti-phospho-tau(Thr231) (1:500; Calbiochem, San Diego, Calif.). As a control pre-immune rabbit or mouse IgG (Vector Laboratories, Burlingame, Calif.) or goat IgG (Santa Cruz) was used in place of the primary antibody. A biotinylated anti-goat IgG, anti-rabbit IgG, or anti-mouse IgG was used as the secondary antibody. Finally, the Vectastain Elite ABC kit (Vector) and tyramide conjugated to either Alexa Fluor 488 or 568 (Molecular Probes, Eugene, Oreg.) were used to visualize the antibody staining. Anti-NeuN (1:250; Chemicon International, Temecula, Calif.) and 4G8 (1:250; Signet, Dedham, Mass.) together with an anti-mouse IgG secondary antibody conjugated to Alexa Fluor 488 were used to detect NeuN and Aβ. The DNA binding dyes ToPro3 (Molecular Probes) or Hoechst 33258 (Sigma, St. Louis, Mo.) were used to visualize nuclei. Sections were imaged using either the Bio-Rad Laser Scanning Confocal system or epifluorescence (Zeiss, Thornwood, N.Y.). Representative figures were obtained from 3 APPSw mice and 3 non-transgenic controls, 3 animals per treatment for hippocampal slices, or from 4 goat IgG and 4 anti-TTR antibody infused mice.
Following treatment with 50 μM Aβ or reverse Aβ for 24 hours, hippocampal slice cultures were fixed with a mixture of 2% PFA/2.5% glutaraldehyde in 0.1 M Sorensons phosphate buffer (pH 7.4) for 1 hour and then post fixed for 1 hour in 2% osmium tetroxide in the same buffer. The slices were then dehydrated in an ethanol series and embedded in Epon epoxy resin. Ultrathin sections were cut on a Reichert-Jung microtome, placed on copper grids, and stained with routine concentrations of uranyl acetate and lead citrate. Micrographs were taken with a Philips CM120 electron microscope. […]
A general note: A western blot detects proteins with antibodies after separation by electrophoresis.

Consider β-amyloid1-42 [Aβ], for which, in the test on tau [1] (50 μM Aβ), the AT8 positive cells result is “several AT8 positive cells” and the “Somatic phospho-tau(Thr231) in NeuN positive neurons” value is recorded as “several NeuN positive neurons with high levels of somatic phospho-tau(Thr231)”. For the same substance, the “Tangle-like structures, electron microscopy” value in the test with tau [1] (50 μM Aβ for 1 week) was “small number of neurons with tangle-like structures”. Also, in the test with tau [2] (25 μM or 50 μM), the “AT8 (phosphorylated tau) staining of neurons in hippocampal neuronal fields” value is listed as “many neurons within the hippocampal neuronal fields were AT8 positive”. In addition, the “Phospho-tau(Thr-231) staining of neurons” value in the test with tau [2] (25 μM or 50 μM Aβ) was “several neurons stained positively for phospho-tau(Thr-231)”. For the same substance, the “Levels of phosphorylated tau, immunoblot for phospho-tau(Thr-231)” value in the test with tau [2] (50 μM) is “increased the levels of phosphorylated tau”. The “Filaments within the cytoplasm of neurons, electron microscopy” value in the test with tau [2] (50 μM Aβ, 24 hours) is “presence of long, straight filaments”.
